Assay results reported in publication PMC8086144, “A novel peptide antagonist of the human growth hormone receptor” (The Journal of Biological Chemistry, 2021).

Experiments:
[1] = Stability of hGH and pegvisomant in human serum (Western blot); assay type: in vitro ADME; settings: RPMI with 25% (v/v) heat-inactivated human AB serum, 37 °C, 25 μg/ml protein, SDS-PAGE/Western blot densitometry, average of three experiments
Experimental: (§1) The samples were then incubated at 95 °C for 5 min before being cooled on ice and stored at −80 °C. […] Following separation, the proteins were transferred to polyvinylidine difluoride membranes and subjected to Western blot analysis (vide infra). The fraction of intact protein was quantified by measuring the integrated density of each band contained within regions of the gel corresponding to “intact” or “degraded” proteins. […] These reactions were allowed to incubate at 37 °C for up to 8 h, with samples removed at selected timepoints for analysis. Following incubation, the samples were either mixed with 5× Laemmli loading buffer and subjected to SDS-PAGE for Western blot analysis (Fig. S5) or directly injected onto a C18 reversed-phase column for analysis by HPLC as described above for the S1H peptide (Fig. S4).

[2] = target: T1, trypsin (bovine pancreas) (Bos taurus, UniProt P00760); assay: Trypsin degradation of hGH and pegvisomant (HPLC and Western blot); assay type: in vitro ADME; settings: 4 μg/ml trypsin in digestion buffer pH 7.8, 37 °C, up to 8 h, 25 μg/ml protein
T1 construct: purchased Sigma-Aldrich; host or cells: bovine pancreas
T1 sequence (P00760 24-246): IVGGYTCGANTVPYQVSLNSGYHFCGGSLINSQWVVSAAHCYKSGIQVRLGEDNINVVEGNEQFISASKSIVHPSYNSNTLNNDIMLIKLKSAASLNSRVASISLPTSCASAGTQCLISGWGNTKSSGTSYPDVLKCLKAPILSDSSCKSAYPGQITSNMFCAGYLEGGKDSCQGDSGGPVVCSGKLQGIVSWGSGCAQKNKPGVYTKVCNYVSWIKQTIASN
Experimental: as §1

[3] = target: T2, hGHR (Homo sapiens, UniProt P10912); assay: hGH-mediated pSTAT5 in SK-MEL-28 cells, ELISA; assay type: cell-based; settings: ELISA (pSTAT5A Y694/pSTAT5B Y699), SK-MEL-28 cells co-treated with hGH and 200 nM peptide, Equation 2, triplicate; for % pSTAT5 inhibition: 20 min; for inhibition at 0.2 µM: SK-MEL-28, 20 min
T2 construct: previously reported to express high levels of endogenous hGHR; host or cells: SK-MEL-28, MALME-3M, IM9
T2 sequence (P10912 19-638): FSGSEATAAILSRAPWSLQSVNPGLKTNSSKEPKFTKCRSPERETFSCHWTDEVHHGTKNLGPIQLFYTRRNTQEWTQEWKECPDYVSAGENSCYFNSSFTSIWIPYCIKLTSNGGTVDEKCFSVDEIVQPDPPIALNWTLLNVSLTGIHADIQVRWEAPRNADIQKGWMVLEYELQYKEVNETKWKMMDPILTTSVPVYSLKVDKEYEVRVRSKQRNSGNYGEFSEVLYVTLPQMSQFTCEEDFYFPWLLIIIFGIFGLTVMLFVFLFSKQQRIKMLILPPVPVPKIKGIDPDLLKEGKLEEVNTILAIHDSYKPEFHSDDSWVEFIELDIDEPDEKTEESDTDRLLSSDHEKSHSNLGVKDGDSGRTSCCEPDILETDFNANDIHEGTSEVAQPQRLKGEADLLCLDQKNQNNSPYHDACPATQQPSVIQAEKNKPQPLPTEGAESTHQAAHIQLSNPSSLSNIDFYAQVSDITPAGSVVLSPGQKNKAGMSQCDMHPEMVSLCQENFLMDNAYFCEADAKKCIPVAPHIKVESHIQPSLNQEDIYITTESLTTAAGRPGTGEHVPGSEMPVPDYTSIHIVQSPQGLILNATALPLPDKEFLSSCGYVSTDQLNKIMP
Experimental: SK-MEL-28, MALME-3M, and T84 cells were grown and maintained in Eagle's Minimal Essential Medium. IM9 and L cells were grown in RPMI-1640 media and Dulbecco's modified Eagle's medium, respectively. All growth media was supplemented with 10% fetal bovine serum and 1× antibiotic-antimycotic […] solution. Cells were grown at 37 °C under a 5% CO2 atmosphere in a humidified incubator, and growth media was replaced every 48 h during incubation. No hGH was present in or added to the growth media unless specifically indicated. Between 12 to 16 h after seeding, adherent cells (SK-MEL-28, MALME-3M, T84, L cells) were switched to serum-free growth media (no GH) and starved for 4 h before the addition of hGH, bGH (L cells), hPRL (MALME-3M and T84 cells), or buffer at the concentrations noted. Cells were then allowed to incubate for an additional 20 min before being harvested. For suspended cell treatments, IM9 cells were pelleted by centrifugation at 140g for 5 min at room temperature. The supernatant was then removed by aspiration, and the cells were resuspended in serum-free media. The cells were then starved for 4 h at 37 °C under a 5% CO2 atmosphere in a humidified incubator and subsequently treated with hGH, S1H, or both at the indicated concentrations for 20 min before harvesting by centrifugation.
Following treatment, the cells were harvested at the indicated time points, and the total protein was extracted. To affect protein extraction, the treatment media was removed by aspiration, and the cells were washed twice with ice-cold PBS. Following washing, total protein was extracted from the cells using RIPA buffer (100 μl/million cells) supplemented with 1.5× Halt protease and phosphatase inhibitor cocktail. Briefly, chilled RIPA buffer was added to the cells, and the lysis reaction was allowed to incubate for 5 min at 4 °C. Adherent cells were harvested for lysis using a sterile cell scraper. The resultant cell suspensions were sonicated on ice for 60 s with ON (2-s)/OFF (1-s) pulses at 2% power. The cell lysate was then cleared by centrifugation at 8000g for 10 min at 4 °C. Following centrifugation, the supernatant was collected and stored at −80 °C until further use. Sample protein concentration was quantified using a Bradford assay with bovine serum albumin as the protein standard. Absorbance at 595 nm was measured using a Spectramax 250 multimode plate reader (Molecular Devices) and processed using SoftmaxPro v4.7.1 software.
Intracellular pSTAT5A (Y694) and pSTAT5B (Y699) levels were quantified from clarified protein samples using an InstantOne ELISA kit (Thermo Fisher) according to the manufacturer’s instructions. Briefly, 50 μl of protein sample (1 mg/ml) were added to wells containing 50 μl antibody cocktail in a 96-well plate and incubated at room temperature for 2 h with shaking (300 rpm). Following incubation, the wells were washed, and the bound antibodies were detected by adding detection regent and incubating the plate for 1 h at room temperature with shaking (300 rpm). Following incubation, stop reagent was added, and the absorbance was read at 450 nm using a UV-VIS spectrophotometer (Molecular Devices, model M2). All experiments were performed in triplicate. Percent pSTAT5 inhibition was calculated from background-subtracted pSTAT5 levels using Equation 2:(2) %inhibition=100×(pSTAT5hGH−pSTAT5PI)/pSTAT5hGH where pSTAT5hGH is the fold-induction of pSTAT5 upon treatment with hGH alone and pSTAT5PI is the fold-induction of pSTAT5 upon co-treatment with hGH and peptide inhibitor.

[4] = Wavelength-dependent CD spectropolarimetry (helical propensity); assay type: physicochemical; settings: 25 °C; for % α-helix + TFE / % α-helix - TFE: calculated from MRE at 222 nm (Equation 1); for % α-helix + TFE / [θ]222 + TFE (mean residue ellipticity at 222 nm): 20 μM peptide in PBS with 30% (v/v) TFE; for % α-helix - TFE / [θ]222 - TFE (mean residue ellipticity at 222 nm): 20 μM peptide in PBS, no TFE; for [θ]222 + TFE (mean residue ellipticity at 222 nm) / [θ]222 - TFE (mean residue ellipticity at 222 nm): far-UV CD, background-subtracted average of four scans, in deg·cm2/dmol (unit assumed)
Experimental: The solution-phase structure of each peptide was evaluated by wavelength-dependent CD spectropolarimetry. For analysis, stock peptides were diluted to a final concentration of 20 μM in PBS supplemented with or without 30% (v/v) TFE. All peptide solutions were allowed to equilibrate for 10 min at 25 °C before analysis. Far-UV wavelength scans were performed on a Jasco J-715 CD spectropolarimeter from 255 nm to 195 nm at 25 °C. Final spectra were generated from a background subtracted (buffer only) average of four scans. Data were processed using J-700 Software v1.5 (Jasco) and KaleidaGraph v4.5. Percent helicity was calculated from the mean residue ellipticity at 222 nm using Equation 1:(1) %helical content=100×([θ]222/(−39,000(1−2.57/n))) where [θ]222 is the mean residue ellipticity at 222 nm and n is the total number of peptide bonds ([86]).

Substance: hGH: recombinant human growth hormone, 191-amino acid peptide hormone (22 kDa)
- protein remaining intact after 48 h in human serum [1]: > 92%
- time to full degradation by trypsin [2]: 8 h

Substance: Ac-YIPKEAKYSFLQNPQT-NH2 [S1H (Q41A)]
- % pSTAT5 inhibition [3]: reduced inhibitory effects compared with WT S1H
- inhibition at 0.2 µM [3]: 37.4%
- % α-helix + TFE [4]: 25.4%
- % α-helix - TFE [4]: 8.3%
- [θ]222 + TFE (mean residue ellipticity at 222 nm) [4]: -8,400
- [θ]222 - TFE (mean residue ellipticity at 222 nm) [4]: -2,700

Substance: Ac-YIPKEQKYSFLQAPQT-NH2 [S1H (N48A)]
- inhibition at 0.2 µM [3]: 89.1%
- % α-helix + TFE [4]: 12.2%
- % α-helix - TFE [4]: 6.7%
- [θ]222 + TFE (mean residue ellipticity at 222 nm) [4]: -4,100
- [θ]222 - TFE (mean residue ellipticity at 222 nm) [4]: -2,200

Substance: Ac-YIPKEQAYSFLQNPQT-NH2 [S1H (K42A)]
- % pSTAT5 inhibition [3]: reduced inhibitory effects compared with WT S1H
- inhibition at 0.2 µM [3]: 51.7%
- % α-helix + TFE [4]: 24.4%
- % α-helix - TFE [4]: 2.4%
- [θ]222 + TFE (mean residue ellipticity at 222 nm) [4]: -8,100
- [θ]222 - TFE (mean residue ellipticity at 222 nm) [4]: -800

Substance: Ac-YIPKEQKYSFAQNPQT-NH2 [S1H (L46A)]
- % pSTAT5 inhibition [3]: comparable to WT S1H
- inhibition at 0.2 µM [3]: 75.1%
- % α-helix - TFE [4]: 7.0%
- [θ]222 - TFE (mean residue ellipticity at 222 nm) [4]: -2,300

Substance: Ac-YIPKEQKYAFLQNPQT-NH2 [S1H (S44A)]
- % pSTAT5 inhibition [3]: comparable to WT S1H
- inhibition at 0.2 µM [3]: 72.3%
- % α-helix + TFE [4]: 63.5%
- % α-helix - TFE [4]: 15.7%
- [θ]222 + TFE (mean residue ellipticity at 222 nm) [4]: -21,100
- [θ]222 - TFE (mean residue ellipticity at 222 nm) [4]: -5,200

Substance: Ac-YIPKAQKYSFLQNPQT-NH2 [S1H (E40A)]
- inhibition at 0.2 µM [3]: 33.4%

Substance: Ac-YIPKEQKYSALQNPQT-NH2 [S1H (F45A)]
- % pSTAT5 inhibition [3]: reduced inhibitory effects compared with WT S1H
- inhibition at 0.2 µM [3]: 52.5%
- % α-helix + TFE [4]: 21.4%
- % α-helix - TFE [4]: 11.1%
- [θ]222 + TFE (mean residue ellipticity at 222 nm) [4]: -7,100
- [θ]222 - TFE (mean residue ellipticity at 222 nm) [4]: -3,700

Substance: Ac-YIPKEQKASFLQNPQT-NH2 [S1H (Y43A)]
- % pSTAT5 inhibition [3]: comparable to WT S1H
- inhibition at 0.2 µM [3]: 66.6%
- % α-helix + TFE [4]: 68.8%
- % α-helix - TFE [4]: 11.2%
- [θ]222 + TFE (mean residue ellipticity at 222 nm) [4]: -22,800
- [θ]222 - TFE (mean residue ellipticity at 222 nm) [4]: -3,700

Substance: Ac-YIPAEQKYSFLQNPQT-NH2 [S1H (K39A)]
- inhibition at 0.2 µM [3]: 88.5%

Substance: Ac-YIPKEQKYSFLANPQT-NH2 [S1H (Q47A)]
- inhibition at 0.2 µM [3]: 30.1%
- % α-helix + TFE [4]: 86.3%
- % α-helix - TFE [4]: 8.2%
- [θ]222 - TFE (mean residue ellipticity at 222 nm) [4]: -2,700
